The text below walks through data of PubChem BioAssay AID290 (DTP/NCI, 2004).

Values joined by “and” are separate entries in the source; they are usually repeats but may differ in a detail not shown here. Equal entries are not always repeated. Records with an inconclusive call do not appear. *1 amine or outer side, *2 acyl side, *3 side chain or, on linkers, in order; H or OH if unused. Where a SMILES comes first, the peptide text is derived from it. Bridges are numbered along the chain shown (N, C = ends). Roman numbers before positions name the chains, in order. [ ]: non-standard residue; d: D form. Actinocin(9to1) = Cc1c2oc3c(C)ccc(C(=O)[*:1])c3nc-2c(C(=O)[*:2])c(N)c1=O; aThr = C[C@H](O)[C@H](N)C(=O)O; NMeV = CN[C@H](C(=O)O)C(C)C; Sar = CNCC(=O)O

The test has as its system mice, P1798 lymphosarcoma sc, survival or tumor weight T/C. Briefly: NCI In Vivo Anticancer Drug Screen. Data for tumor model P1798 Lymphosarcoma (subcutaneous) in unknown mice. Conditions: endpoint: mean tumor weight, higher = larger tumour. As to the method:
The antitumor activity of compounds was measured in mice bearing transplantable tumors. Survival or tumor size were measured and the results are expressed as the measurement made in the treated group (T) divided by the measurement made in the vehicle treated control group (C). The tumor model used in this assay is P1798 Lymphosarcoma (subcutaneous) in unknown mice

Setting [1] is: dose: 6.3 mg/kg/injection, schedule: Q01DX010 (ip), vehicle: carboxymethylcellulose (CMC).
[2] abbreviates: dose: 25.0 mg/kg/injection, schedule: Q01DX010 (ip), vehicle: carboxymethylcellulose (CMC).
[3] abbreviates: dose: 25.0 mg/kg/injection, schedule: Q01DX010 (ip), vehicle: saline.
The mark [4] stands for this setting: dose: 50.0 mg/kg/injection, schedule: Q01DX010 (ip), vehicle: saline.
The mark [5] stands for this setting: dose: 100.0 mg/kg/injection, schedule: Q01DX010 (ip), vehicle: saline.

Turning to `Nc1nc(=S)c2[nH]cnc2[nH]1`, the T/C is 77 % of control (dose: 0.12 mg/kg/injection, schedule: Q01DX010 (ip), vehicle: carboxymethylcellulose (CMC)); 64 % of control (dose: 0.25 mg/kg/injection, schedule: Q01DX010 (ip), vehicle: carboxymethylcellulose (CMC)); 81 % of control (dose: 0.5 mg/kg/injection, schedule: Q01DX010 (ip), vehicle: carboxymethylcellulose (CMC)).
For the molecule `CCN(CC)CCNc1ccc(C)c2sc3ccccc3c(=O)c12`, the T/C by setting is: (dose: 3.1 mg/kg/injection, schedule: Q01DX010 (ip), vehicle: methylcellulose (MC)) 108 % of control; (dose: 5.0 mg/kg/injection, schedule: Q01DX010 (ip), vehicle: methylcellulose (MC)) 99 % of control; (dose: 10.0 mg/kg/injection, schedule: Q01DX010 (ip), vehicle: methylcellulose (MC)) 68 % of control; (dose: 20.0 mg/kg/injection, schedule: Q01DX010 (ip), vehicle: methylcellulose (MC)) 104 % of control.
In the case of `CN(C)c1ccc(Nc2c3ccccc3nc3ccccc23)cc1`, the T/C reads like this: (dose: 3.15 mg/kg/injection, schedule: Q01DX010 (ip), vehicle: carboxymethylcellulose (CMC)) 84 % of control; under setting [1], 86 % of control; under setting [2], 36 % of control; (dose: 50.0 mg/kg/injection, schedule: Q01DX010 (ip), vehicle: carboxymethylcellulose (CMC)) 10 % of control.
As to `Cn1c(N)nc2nc[nH]c2c1=S`, the T/C runs as follows: (dose: 3.1 mg/kg/injection, schedule: Q01DX010 (ip), vehicle: carboxymethylcellulose (CMC)) 105 % of control; under setting [1], 59 % of control; (dose: 10.0 mg/kg/injection, schedule: Q01DX010 (ip), vehicle: saline) 102 % of control; (dose: 12.5 mg/kg/injection, schedule: Q01DX010 (ip), vehicle: carboxymethylcellulose (CMC)) 91 % of control; (dose: 20.0 mg/kg/injection, schedule: Q01DX010 (ip), vehicle: saline) 99 % of control; under setting [2], 101 % of control. The T/C (dose: 40.0 mg/kg/injection, schedule: Q01DX010 (ip), vehicle: saline) was 122 % of control and the T/C (dose: 80.0 mg/kg/injection, schedule: Q01DX010 (ip), vehicle: saline) was 114 % of control.
As for `COS(C)(=O)=O`, the T/C was 98 % of control (dose: 12.5 mg/kg/injection, schedule: Q01DX010 (ip), vehicle: saline); 80 % of control under setting [3]; 81 % of control under setting [4]; 57 % of control under setting [5].
For `CC(C)=C(Br)CC[C@@H](C)[C@H]1CC[C@@]2(C)C3=C(CC[C@]12C)[C@@]1(C)CC[C@H](O)C(C)(C)[C@@H]1CC3`, the T/C is, setting by setting: (dose: 100.0 mg/kg/injection, schedule: Q01DX011 (sc), vehicle: steriod suspending solution) 151 % of control; (dose: 200.0 mg/kg/injection, schedule: Q01DX011 (sc), vehicle: steriod suspending solution) 186 % of control.
Take `CC1(O)CCC2C3CCC4=CC(=O)CCC4C3CCC21C` (configuration not stated): the T/C is, setting by setting: (dose: 75.0 mg/kg/injection, schedule: Q01DX010 (sc), vehicle: steriod suspending solution) 116 % of control; (dose: 150.0 mg/kg/injection, schedule: Q01DX010 (sc), vehicle: steriod suspending solution) 115 % of control; (dose: 300.0 mg/kg/injection, schedule: Q01DX010 (sc), vehicle: steriod suspending solution) 109 % of control; (dose: 600.0 mg/kg/injection, schedule: Q01DX010 (sc), vehicle: steriod suspending solution) 122 % of control.
`Cc1cc(N(CCCl)CCCl)ccc1N=Nc1ccccc1C(=O)O`: the T/C is, setting by setting: (dose: 3.75 mg/kg/injection, schedule: Q01DX010 (ip), vehicle: carboxymethylcellulose (CMC)) 40 % of control; (dose: 7.5 mg/kg/injection, schedule: Q01DX010 (ip), vehicle: carboxymethylcellulose (CMC)) 26 % of control.
Turning to `O=[n+]1c2c(n([O-])c3ccccc31)-c1cccc3cccc-2c13`, the T/C by setting is: under setting [3], 84 % of control; under setting [4], 37 % of control; under setting [5], 36 % of control; (dose: 200.0 mg/kg/injection, schedule: Q01DX010 (ip), vehicle: saline) 19 % of control.
As to `c1ccc(CNc2ncnc3[nH]ncc23)cc1`, where the note is “dose: 15.6 mg/kg/injection, schedule: Q01DX010 (ip), vehicle: carboxymethylcellulose (CMC)”, the T/C was 82 % of control.
With `CC12C=CC(=O)C=C1CCC1C3CCC(O)(C(=O)CO)C3(C)CC(O)C12F` (configuration not stated), the T/C was 85 % of control (dose: 3.0 mg/kg/injection, schedule: Q01DX010 (sc), vehicle: steriod suspending solution); 58 % of control (dose: 6.0 mg/kg/injection, schedule: Q01DX010 (sc), vehicle: steriod suspending solution); 56 % of control (dose: 12.0 mg/kg/injection, schedule: Q01DX010 (sc), vehicle: steriod suspending solution).
As to `CC(=O)[C@H]1CC[C@H]2[C@@H]3C[C@H](C)C4=CC(=O)CC[C@]4(C)[C@H]3C(=O)C[C@]12C`, the T/C (dose: 12.5 mg/kg/injection, schedule: Q01DX010 (sc), vehicle: carboxymethylcellulose (CMC)) was 101 % of control; the T/C (dose: 25.0 mg/kg/injection, schedule: Q01DX010 (sc), vehicle: carboxymethylcellulose (CMC)) is 100 % of control; the T/C (dose: 50.0 mg/kg/injection, schedule: Q01DX010 (sc), vehicle: carboxymethylcellulose (CMC)) is 115 % of control; the T/C (dose: 100.0 mg/kg/injection, schedule: Q01DX010 (sc), vehicle: carboxymethylcellulose (CMC)) was 112 % of control; the T/C (dose: 200.0 mg/kg/injection, schedule: Q01DX010 (sc), vehicle: carboxymethylcellulose (CMC)) is 117 % of control; the T/C (dose: 400.0 mg/kg/injection, schedule: Q01DX010 (sc), vehicle: carboxymethylcellulose (CMC)) is 108 % of control.
`Nc1nc(SCc2ccccc2)c2[nH]cnc2n1`: the T/C by setting is: (dose: 4.7 mg/kg/injection, schedule: Q01DX010 (ip), vehicle: carboxymethylcellulose (CMC)) 42 % of control; (dose: 9.4 mg/kg/injection, schedule: Q01DX010 (ip), vehicle: carboxymethylcellulose (CMC)) 51 % of control.
`O=c1cnn(C2OC(CO)C(O)C2O)c(=O)[nH]1` (configuration not stated): the T/C reads like this: (dose: 125.0 mg/kg/injection, schedule: Q01DX010 (ip), vehicle: water) 93 % of control; (dose: 250.0 mg/kg/injection, schedule: Q01DX010 (ip), vehicle: water) 67 % of control; (dose: 500.0 mg/kg/injection, schedule: Q01DX010 (ip), vehicle: water) 77 % of control; (dose: 1000.0 mg/kg/injection, schedule: Q01DX010 (ip), vehicle: water) 75 % of control.
Take `S=c1nc[nH]c2nc[nH]c12`: the T/C runs as follows: (dose: 3.12 mg/kg/injection, schedule: Q01DX010 (ip), vehicle: other) 103 % of control; (dose: 6.25 mg/kg/injection, schedule: Q01DX010 (ip), vehicle: other) 83 % of control; (dose: 12.5 mg/kg/injection, schedule: Q01DX010 (ip), vehicle: other) 74 % of control and 77 % of control and 88 % of control; (dose: 18.7 mg/kg/injection, schedule: Q01DX010 (ip), vehicle: other) 45 % of control; (dose: 34.0 mg/kg/injection, schedule: Q01DX001 (ip), vehicle: carboxymethylcellulose (CMC)) 92 % of control.
For `Cc1c2oc3c(C)ccc(C(=O)N[C@@H]4C(=O)N[C@H](C(C)C)C(=O)N5CCC[C@H]5C(=O)N(C)CC(=O)N(C)[C@@H](C(C)C)C(=O)O[C@H]4C)c3nc-2c(C(=O)N[C@@H]2C(=O)N[C@H](C(C)C)C(=O)N3CCC[C@H]3C(=O)N(C)CC(=O)N(C)[C@@H](C(C)C)C(=O)O[C@H]2C)c(N)c1=O` (I: [aThr][dV]P[Sar][NMeV] / II: [aThr][dV]P[Sar][NMeV]; ester I:1-I:C, II:1-II:C; linker I:N-II:N via Actinocin(9to1)), the T/C reads like this: (dose: 2.0 micrograms/kg/injection, schedule: Q01DX010 (ip), vehicle: saline) 117 % of control; (dose: 20.0 micrograms/kg/injection, schedule: Q01DX010 (ip), vehicle: saline) 46 % of control.
As for `Clc1ccc(C(c2ccccc2Cl)C(Cl)Cl)cc1` (configuration not stated), the T/C was 85 % of control (dose: 62.5 mg/kg/injection, schedule: Q01DX010 (sc), vehicle: steriod suspending solution); 73 % of control (dose: 125.0 mg/kg/injection, schedule: Q01DX010 (sc), vehicle: steriod suspending solution); 105 % of control (dose: 250.0 mg/kg/injection, schedule: Q01DX010 (sc), vehicle: steriod suspending solution); 103 % of control (dose: 500.0 mg/kg/injection, schedule: Q01DX010 (sc), vehicle: steriod suspending solution).
Consider `N=C(N)c1ccc(Nc2ccc(C(=N)N)cc2)cc1`, for which the T/C runs as follows: (dose: 3.0 mg/kg/injection, schedule: Q01DX010 (ip), vehicle: saline) 105 % of control; (dose: 6.0 mg/kg/injection, schedule: Q01DX010 (ip), vehicle: saline) 117 % of control; (dose: 6.25 mg/kg/injection, schedule: Q01DX010 (ip), vehicle: methylcellulose (MC)) 66 % of control; (dose: 12.0 mg/kg/injection, schedule: Q01DX010 (ip), vehicle: saline) 77 % of control; (dose: 12.5 mg/kg/injection, schedule: Q01DX010 (ip), vehicle: methylcellulose (MC)) 77 % of control.
